In US20090048194A1, “Vagal Afferent Neurons as Targets for Treatment” (Janssen Pharmaceutica N.V., priority 2005, published 2009):

How the values were obtained:
[1] = system: sham nodose neurons; experiment: Patch clamp recording of octreotide on dissociated sham nodose neurons; assay type: cell-based, Balb/c mice; conditions: for effect on number of action potentials at 2× rheobase: sham nodose neurons
Protocol: (§1) Balb/c mice were injected intraperitoneally with the retrograde labelling agent cholera toxin B 488 3-7 days prior to experiments. Mice were then anaesthetized with ketamine/xylazine, the spinal cord removed and DRG neurons isolated (T10-T13) for electrophysiological recordings 18-24 hours after their dissociation and incubation, and mounted on the stage of an inverted microscope (Leica DMIRE2)) for both bright-field and fluorescence observation. Cholera toxin labelled neurons were identified by their green fluorescence under the N3 filter system (Leica). Whole cell currents and voltage clamp experiments were performed by using MultiClamp 7A amplifier and digitized with a DigiData 1322A converter (Axon Instruments). Stimulation and data acquisition were obtained by the pClamp 9 program (Axon Instruments). Signals were sampled at 10 kHz or 20 kHz, and low-pass filtered at 4 KHz. The series resistance was compensated. Neurons were excluded from analysis if the seal resistance or access resistance was unstable, or if they fired spontaneous action potentials.
(§2) Borosilicate glass (Harvard) was pulled with a P97 micropipette puller (Sutter, Calif.), and fire polished by a M 200 microforge (World Precision Instrument) to a tip resistance of 5-10 MΩ. A silver-silver chloride pellet (world Precision Instrument) was placed in the recording dish as the reference electrode. The normal extracellular Kreb's solution contained (in mM): NaCl 118.0, KCl 4.7, NaH2PO4 1.0, NaHCO3 25.0, MgSO4 1.2, CaCl2 2.5, D-Glucose 11.1, with pH adjusted to 7.3 by using NaOH. The normal intracellular solution contained (in mM): HEPES 10.0, KCl 130.0, MgCl2 1.0, CaCl2 1.0, EGTA 2.0, K2ATP 2, Na3GTP 0.2, titrated with KOH to pH 7.25. The extracellular solution for isolating TTX-resistance Na currents composed of (in mM): NaCl 145.0, KCl 4.8, HEPES 10.0, MgCl2 1.0, CaCl2 2.5, D-glucose 11.1, TTX 0.0003, CdCl 0.5, 4-AP 1.0, TEA-Cl 5.0, CsCl 2.0, pH adjusted to 7.3 by using NaOH, and the corresponding intracellular solution was (in mM): EPES 10.0, CsCl 130.0, MgCl2 1.0, CaCl2 1.0, EGTA 2.0, K2ATP 2.0, Na3GTP 0.2, pH adjusted to 7.25 by using CsOH. All experiments were performed at temperature of 30° C.-33° C.
(§3) Data were analyzed by using pClamp 9 software (Axon Instruments). Neurons were recorded in both current-clamp and voltage-clamp configurations. Voltage clamp recordings were used to generate current-voltage relationships for cells. Current clamp recordings were used to determine the rheobase for action potential firing of neurons. The number of action potentials elicited at 2× rheobase was subsequently assessed in current clamp mode.
(§4) Nodose neurons were dissociated and cultured in preparation for patch clamp experiments as has been described elsewhere. These nodose neurons were either obtained from Balb/c mice 21 days after infection with Nb or from sham mice, thus enabling a comparison of the effects of octreotide on both sham and Nb-infected nodose neurons.
(§5) Octreotide (1 μM) was applied to individual neurons via a fast perfusion system. Octreotide's effects were recorded on the cell's resting membrane potential (RMP) and the number of action potentials fired at 2× rheobase of each neuron.

[2] = system: Nb-infected nodose neurons; experiment: Patch clamp recording of octreotide on dissociated Nb-infected nodose neurons; assay type: cell-based, Balb/c mice; conditions: for effect on number of action potentials at 2× rheobase: infected nodose neurons
Protocol: as §1, §2, §3, §4, §5

[3] = octreotide 1 μM, listed as octreotide

SMILES: C[C@@H](O)[C@@H]1NC(=O)[C@H](CCCCN)NC(=O)[C@@H](Cc2c[nH]c3ccccc23)NC(=O)[C@H](Cc2ccccc2)NC(=O)[C@@H](NC(=O)[C@H](N)Cc2ccccc2)CSSC[C@@H](C(=O)N[C@H](CO)[C@@H](C)O)NC1=O [Octreotide, octreotide]
- effect on RMP ([1]; sham neurons, octreotide 1 μM): no significant effect
- resting membrane potential (RMP) ([1]; sham neurons, octreotide 1 μM, n=27): −54.7±2.1 mV
- number of action potentials evoked at 2× rheobase (FIG. 23 example) ([1]; sham nodose neuron, after 1 μM octreotide, control in Krebs 2): 1 action potential
- effect on number of action potentials at 2× rheobase ([1]; octreotide 1 μM): reduced the number of action potentials
- effect on number of action potentials at 2× rheobase [1, 3]: reduces the number of action potentials
- difference between the effect of octreotide on sham and infected neurons (action potentials at 2× rheobase) ([2]; 1 μM octreotide, sham vs infected, FIG. 24): no significant difference
- effect on RMP ([2]; infected neurons, octreotide 1 μM): no significant effect
- resting membrane potential (RMP) ([2]; infected neurons, octreotide 1 μM, n=25): −51.7±2.1 mV
- number of action potentials evoked at 2× rheobase (FIG. 23 example) ([2]; infected nodose neuron, after 1 μM octreotide, control in Krebs 9): 2 action potentials
- effect on number of action potentials at 2× rheobase ([2]; octreotide 1 μM): reduced the number of action potentials
- effect on number of action potentials at 2× rheobase [2, 3]: reduces the number of action potentials
